Source: paper PMC8102066 (eLife, 2021)
Several values for one entry are separate records, joined by “and”; a condition that tells them apart may be missing. Equal entries are not always repeated. Where two headings read alike, the source gives them in different places.

Columns and labels:
mGluR2-A726S-G730I-A733T = molecular target: T1, mGluR2-A726S-G730I-A733T (Rattus norvegicus, UniProt P31421, A726S/A733T/G730I); assay: Calcium imaging in HEK 293 T cells; type: cell-based
T1 construct: calcium imaging experiments with mutations in the full-length mGluR2 background; expressed in transfected cells; host or cells: HEK 293T
T1 sequence (P31421 19-872 A726S/G730I/A733T): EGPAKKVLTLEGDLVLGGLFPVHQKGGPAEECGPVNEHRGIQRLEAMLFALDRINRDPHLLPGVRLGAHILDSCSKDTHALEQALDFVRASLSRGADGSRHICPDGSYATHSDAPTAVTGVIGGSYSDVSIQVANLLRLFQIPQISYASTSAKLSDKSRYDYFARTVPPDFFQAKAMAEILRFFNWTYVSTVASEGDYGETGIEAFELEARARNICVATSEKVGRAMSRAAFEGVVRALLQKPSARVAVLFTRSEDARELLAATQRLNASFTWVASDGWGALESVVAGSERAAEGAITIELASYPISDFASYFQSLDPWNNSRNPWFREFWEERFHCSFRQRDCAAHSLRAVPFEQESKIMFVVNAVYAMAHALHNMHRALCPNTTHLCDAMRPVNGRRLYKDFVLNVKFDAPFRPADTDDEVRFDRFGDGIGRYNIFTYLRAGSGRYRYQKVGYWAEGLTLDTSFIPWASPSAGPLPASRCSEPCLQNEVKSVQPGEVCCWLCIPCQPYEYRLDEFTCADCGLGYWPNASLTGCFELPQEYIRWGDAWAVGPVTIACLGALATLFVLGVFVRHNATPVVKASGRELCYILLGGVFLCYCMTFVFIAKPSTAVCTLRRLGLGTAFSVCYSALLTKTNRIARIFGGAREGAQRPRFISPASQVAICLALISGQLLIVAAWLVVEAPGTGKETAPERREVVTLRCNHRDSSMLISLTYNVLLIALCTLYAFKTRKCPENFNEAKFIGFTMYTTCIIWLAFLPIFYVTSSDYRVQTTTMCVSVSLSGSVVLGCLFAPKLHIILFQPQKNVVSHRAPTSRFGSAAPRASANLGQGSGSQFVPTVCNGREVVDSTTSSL
Experimental: (§1) Approximately 30 ROIs were analyzed per movie.

mGluR2-AA695SV = molecular target: T2, mGluR2-AA695SV (Rattus norvegicus, UniProt P31421, A695S/A696V); assay: Calcium imaging in HEK 293 T cells; type: cell-based
T2 construct: calcium imaging experiments with mutations in the full-length mGluR2 background; expressed in transfected cells; host or cells: HEK 293T
T2 sequence (P31421 19-872 A695S/A696V): as the sequence (P31421 19-872 A726S/G730I/A733T) above, with A677S, A678V, S708A, I712G, T715A counted along it
Experimental: as §1

mGluR2-F584I-G587T = molecular target: T3, mGluR2-F584I-G587T (Rattus norvegicus, UniProt P31421, F584I/G587T); assay: Calcium imaging in HEK 293 T cells; type: cell-based
T3 construct: calcium imaging experiments with mutations in the full-length mGluR2 background; expressed in transfected cells; host or cells: HEK 293T
T3 sequence (P31421 19-872 F584I/G587T): as the sequence (P31421 19-872 A726S/G730I/A733T) above, with F566I, G569T, S708A, I712G, T715A counted along it
Experimental: as §1

mGluR2-P778A = molecular target: T4, mGluR2-P778A (Rattus norvegicus, UniProt P31421, P778A); assay: Calcium imaging in HEK 293 T cells; type: cell-based
T4 construct: we performed calcium imaging experiments with mutations in the full-length mGluR2 background; expressed in transfected cells; host or cells: HEK 293 T
T4 sequence (P31421 19-872 P778A): as the sequence (P31421 19-872 A726S/G730I/A733T) above, with S708A, I712G, T715A, P760A counted along it
Experimental: as §1

mGluR2-I779W = molecular target: T5, mGluR2-I779W (Rattus norvegicus, UniProt P31421, I779W); assay: Calcium imaging in HEK 293 T cells; type: cell-based; design: scale not given here
T5 construct: we performed calcium imaging experiments with mutations in the full-length mGluR2 background; expressed in transfected cells; host or cells: HEK 293 T
T5 sequence (P31421 19-872 I779W): as the sequence (P31421 19-872 A726S/G730I/A733T) above, with S708A, I712G, T715A, I761W counted along it
Experimental: as §1

mGluR2-3xTM4 [1] = molecular target: T6, mGluR2-3xTM4 (Rattus norvegicus, UniProt P31421, A677S/A681F/A685G/INS660ASEIGTGFPFDPHYVEVLGERMHYVDVGPRDGTPVLFLHGNPTSSYVWRNIIPHVAPTHRCIAPDLIGMGKSDKPDLGYFFDDHVRFMDAFIEALGLEEVVLVIHDWGSALGFHWAKRNPERVKGIAFMEFIRPIPTWDEWPEFARETFQAFRTTDVGRKLIIDQNVFIEGTLPMGVVRPLTEVEMDHYREPFLNPVDREPLWRFPNELPIAGEPANIVALVEEYMDWLHQSPVPKLLFWGTPGVLIPPAEAARLAKSLPNCKAVDIGPGLNLLQEDNPDLIGSEIARWLSTLEISGLE); assay: Inter-TMD FRET sensor (HaloTag in ICL2), live cells; type: cell-based
T6 construct: expressed in transfected cells; host or cells: HEK 293T
T6 sequence (P31421 with tags, fused parts or gaps with the stated changes): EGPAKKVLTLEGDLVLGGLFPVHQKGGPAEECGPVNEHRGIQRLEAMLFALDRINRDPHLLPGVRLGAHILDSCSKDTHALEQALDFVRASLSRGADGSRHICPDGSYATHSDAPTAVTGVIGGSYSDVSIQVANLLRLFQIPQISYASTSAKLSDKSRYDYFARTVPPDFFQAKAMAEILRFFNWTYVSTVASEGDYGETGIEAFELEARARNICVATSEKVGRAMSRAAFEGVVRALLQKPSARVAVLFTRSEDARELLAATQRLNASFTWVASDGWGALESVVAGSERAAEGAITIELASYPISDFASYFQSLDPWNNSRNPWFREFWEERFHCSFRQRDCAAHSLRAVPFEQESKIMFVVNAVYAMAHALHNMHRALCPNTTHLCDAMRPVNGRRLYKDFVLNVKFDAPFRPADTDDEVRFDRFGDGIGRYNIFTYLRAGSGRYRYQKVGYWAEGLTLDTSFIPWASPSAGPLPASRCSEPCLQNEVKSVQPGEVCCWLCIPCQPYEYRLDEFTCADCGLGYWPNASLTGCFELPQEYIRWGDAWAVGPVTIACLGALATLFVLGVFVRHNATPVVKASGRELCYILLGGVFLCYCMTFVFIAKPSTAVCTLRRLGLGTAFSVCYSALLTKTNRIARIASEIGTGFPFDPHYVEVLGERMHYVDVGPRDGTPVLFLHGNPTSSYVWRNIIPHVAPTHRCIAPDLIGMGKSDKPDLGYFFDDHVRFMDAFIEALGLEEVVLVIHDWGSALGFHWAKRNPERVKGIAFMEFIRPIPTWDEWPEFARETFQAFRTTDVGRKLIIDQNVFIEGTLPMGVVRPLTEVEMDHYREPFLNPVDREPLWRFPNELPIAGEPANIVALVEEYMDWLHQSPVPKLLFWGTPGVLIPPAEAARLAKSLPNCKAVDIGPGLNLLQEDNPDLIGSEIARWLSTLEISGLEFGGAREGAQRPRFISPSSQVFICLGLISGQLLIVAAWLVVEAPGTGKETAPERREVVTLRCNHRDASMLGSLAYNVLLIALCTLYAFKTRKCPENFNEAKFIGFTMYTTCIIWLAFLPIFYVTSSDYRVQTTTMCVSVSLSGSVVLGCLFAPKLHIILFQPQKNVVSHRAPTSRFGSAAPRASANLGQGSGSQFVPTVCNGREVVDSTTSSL

mGluR3-S686A = mGluR3-S686A (Rattus norvegicus, UniProt P31422, S686A); assay: Calcium imaging in HEK 293 T cells
Chain of mGluR3-S686A (P31422 23-879 S686A): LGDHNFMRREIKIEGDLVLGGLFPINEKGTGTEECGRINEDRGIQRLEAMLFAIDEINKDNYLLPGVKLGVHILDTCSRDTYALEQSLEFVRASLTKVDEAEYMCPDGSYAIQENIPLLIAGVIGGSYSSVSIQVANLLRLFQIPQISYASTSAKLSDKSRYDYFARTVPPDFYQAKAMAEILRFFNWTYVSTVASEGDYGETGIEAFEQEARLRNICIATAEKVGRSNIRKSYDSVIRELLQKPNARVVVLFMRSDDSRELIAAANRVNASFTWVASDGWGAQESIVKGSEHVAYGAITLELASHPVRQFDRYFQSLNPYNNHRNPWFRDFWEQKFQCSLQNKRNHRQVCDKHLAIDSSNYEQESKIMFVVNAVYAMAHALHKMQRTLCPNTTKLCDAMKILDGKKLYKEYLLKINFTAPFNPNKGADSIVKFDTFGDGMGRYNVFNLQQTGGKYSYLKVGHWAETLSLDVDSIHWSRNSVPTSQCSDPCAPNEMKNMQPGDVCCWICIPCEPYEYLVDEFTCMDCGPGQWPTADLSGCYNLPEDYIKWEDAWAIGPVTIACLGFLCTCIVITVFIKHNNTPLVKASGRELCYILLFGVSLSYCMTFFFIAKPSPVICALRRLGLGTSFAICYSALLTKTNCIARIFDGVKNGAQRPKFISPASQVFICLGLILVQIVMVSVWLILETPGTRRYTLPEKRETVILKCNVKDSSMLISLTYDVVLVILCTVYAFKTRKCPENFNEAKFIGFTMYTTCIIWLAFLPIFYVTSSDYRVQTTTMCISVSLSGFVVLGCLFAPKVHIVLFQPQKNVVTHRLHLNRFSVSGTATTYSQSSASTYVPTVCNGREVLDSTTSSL

mGluR2-3xTM4 [2] = molecular target: T7, mGluR2-3xTM4 (Rattus norvegicus, UniProt P31421, A677S/A681F/A685G); assay: GIRK channel whole cell patch clamp in HEK 293 T cells
T7 sequence (P31421 19-872 A677S/A681F/A685G): as the sequence (P31421 19-872 A726S/G730I/A733T) above, with A659S, A663F, A667G, S708A, I712G, T715A counted along it

mGluR3 = mGluR3 (Rattus norvegicus, UniProt P31422); assay: as above; conditions: for GIRK current amplitude: mGluR3
Chain of mGluR3 (P31422 23-879): as the sequence (P31422 23-879 S686A) above, with A664S counted along it

mGluR3-3xTM4 [3] = molecular target: T8, mGluR3-3xTM4 (Rattus norvegicus, UniProt P31422, F690A/G694A/S686A); assay: as above; conditions: for GIRK current amplitude: mGluR3 3xTM4
T8 sequence (P31422 23-879 S686A/F690A/G694A): as the sequence (P31422 23-879 S686A) above, with F668A, G672A counted along it

mGluR3-I788A = mGluR3-I788A (Rattus norvegicus, UniProt P31422, I788A); assay: Inter-TMD FRET sensor (HaloTag in ICL2), live cells; type: cell-based; design: expressed in transfected cells; host or cells: HEK 293 T; FRET response amplitude: scale not given here; conditions: for FRET response amplitude: inter-TMD FRET
Chain of mGluR3-I788A (P31422 23-879 I788A): as the sequence (P31422 23-879 S686A) above, with A664S, I766A counted along it
Text: Next, we asked how perturbing the TM6 interface would alter the conformational dynamics detected by our TMD FRET sensors.

mGluR2-3xTM4 [4] = molecular target: T7, mGluR2-3xTM4; assay: Calcium imaging (G protein chimera, GCaMP6f) in HEK 293 T cells; conditions: normalized to 1 mM glutamate, replicates
mGluR3-3xTM4 [5] = molecular target: T8, mGluR3-3xTM4; assay: as above; conditions: for Calcium response amplitude: normalized to 1 mM glutamate, replicates
[6] = read-out: Glutamate EC50 (micromolar), calcium imaging, Fig 3F source data
[7] = read-out: Glutamate EC50, calcium imaging, normalized to saturating (1 mM) glutamate
[8] = read-out: Glutamate EC50, GIRK activation, normalized to saturating (1 mM) glutamate, unit inferred

N[C@@H](CCC(=O)O)C(=O)O [glutamate] was tested. Which Calcium response amplitude (mGluR2-A726S-G730I-A733T; Glutamate 100 nM) did it give?
The Calcium response amplitude was 0.00.

And the Calcium response amplitude (mGluR2-A726S-G730I-A733T; Glutamate 3 uM)?
Its Calcium response amplitude is 0.71 and 0.60.

What about the Calcium response amplitude (mGluR2-A726S-G730I-A733T; Glutamate 10 uM) of the same molecule?
The Calcium response amplitude was 0.93 and 0.97 and 0.56.

And the Calcium response amplitude (mGluR2-A726S-G730I-A733T; Glutamate 100 uM)?
The Calcium response amplitude was 1.00.

And the Calcium response amplitude (mGluR2-A726S-G730I-A733T; Glutamate 1 mM)?
The Calcium response amplitude was 1.00.

What about the Calcium response amplitude (mGluR2-AA695SV; Glutamate 10 nM) of the same molecule?
The Calcium response amplitude was 0.00.

What about the Calcium response amplitude (mGluR2-AA695SV; Glutamate 100 nM) of the same molecule?
The Calcium response amplitude was 0.00.

And the Calcium response amplitude (mGluR2-AA695SV; Glutamate 10 uM)?
The Calcium response amplitude was 0.72 and 0.97.

What about the Calcium response amplitude (mGluR2-AA695SV; Glutamate 100 uM) of the same molecule?
The Calcium response amplitude was 1.00.

And the Calcium response amplitude (mGluR2-AA695SV; Glutamate 1 mM)?
Its Calcium response amplitude is 1.00.

And the Calcium response amplitude (mGluR2-F584I-G587T; Glutamate 100 nM)?
The Calcium response amplitude was 0.00.

And the Calcium response amplitude (mGluR2-F584I-G587T; Glutamate 3 uM)?
Its Calcium response amplitude is 0.62 and 0.57 and 0.48.

What about the Calcium response amplitude (mGluR2-F584I-G587T; Glutamate 10 uM) of the same molecule?
Its Calcium response amplitude is 0.87 and 0.71.

What about the Calcium response amplitude (mGluR2-P778A; Glutamate concentration 100 nM) of the same molecule?
The Calcium response amplitude was 0.00.

What about the Calcium response amplitude (mGluR2-P778A; Glutamate concentration 1 uM) of the same molecule?
Its Calcium response amplitude is 0.48 and 0.50.

And the Calcium response amplitude (mGluR2-P778A; Glutamate concentration 10 uM)?
Its Calcium response amplitude is 0.94 and 0.87.

What about the Calcium response amplitude (mGluR2-P778A; Glutamate concentration 1 mM) of the same molecule?
The Calcium response amplitude was 1.00.

What about the Calcium response amplitude (mGluR2-I779W; Glutamate concentration 10 nM) of the same molecule?
The Calcium response amplitude was 0.00.

What about the Calcium response amplitude (mGluR2-I779W; Glutamate concentration 5 uM) of the same molecule?
Its Calcium response amplitude is 0.52 and 0.53.

What about the Calcium response amplitude (mGluR2-I779W; Glutamate concentration 10 uM) of the same molecule?
The Calcium response amplitude was 0.95 and 0.79 and 0.94 and 0.76.

What about the Calcium response amplitude (mGluR2-I779W; Glutamate concentration 100 uM) of the same molecule?
The Calcium response amplitude was 1.00.

And the Calcium response amplitude (mGluR2-I779W; Glutamate concentration 1 mM)?
The Calcium response amplitude was 1.00.

What about the FRET response amplitude (mGluR2-3xTM4 [1]; Glutamate 10 nM) of the same molecule?
The FRET response amplitude was 0.00.

And the FRET response amplitude (mGluR2-3xTM4 [1]; Glutamate 100 nM)?
The FRET response amplitude was 0.0446.

What about the FRET response amplitude (mGluR2-3xTM4 [1]; Glutamate 1 uM) of the same molecule?
The FRET response amplitude was 0.14 and 0.10 and 0.11.

What about the FRET response amplitude (mGluR2-3xTM4 [1]; Glutamate 10 uM) of the same molecule?
The FRET response amplitude was 0.89 and 0.71.

What about the FRET response amplitude (mGluR2-3xTM4 [1]; Glutamate 100 uM) of the same molecule?
The FRET response amplitude was 1.00.

What about the FRET response amplitude (mGluR2-3xTM4 [1]; Glutamate 1 mM) of the same molecule?
The FRET response amplitude was 1.00.

And the EC50 (mGluR3-S686A; [6])?
Its EC50 is 5.11 µM.

And the EC50 (mGluR3-S686A; [7])?
Its EC50 is 5.12 ± 0.06 µM.

And the GIRK current amplitude (mGluR2-3xTM4 [2]; Glutamate 10 nM)?
Its GIRK current amplitude is 0.000.

What about the GIRK current amplitude (mGluR2-3xTM4 [2]; Glutamate 100 uM) of the same molecule?
The GIRK current amplitude was 0.955 and 1.148 and 1.101.

And the GIRK current amplitude (mGluR2-3xTM4 [2]; Glutamate 1 mM)?
The GIRK current amplitude was 1.000.

And the GIRK current amplitude (mGluR3; Glutamate 100 nM)?
The GIRK current amplitude was 0.155 and 0.145 and 0.126 and 0.149.

What about the GIRK current amplitude (mGluR3; Glutamate 1 uM) of the same molecule?
Its GIRK current amplitude is 0.541 and 0.995 and 0.692.

And the GIRK current amplitude (mGluR3; Glutamate 10 uM)?
The GIRK current amplitude was 0.818 and 1.150 and 0.770 and 0.856 and 1.007.

And the GIRK current amplitude (mGluR3; Glutamate 100 uM)?
The GIRK current amplitude was 1.000.

What about the EC50 (mGluR3; [8]) of the same molecule?
The EC50 was 0.43 ± 0.1 µM.

And the GIRK current amplitude (mGluR3-3xTM4 [3]; Glutamate 10 nM)?
The GIRK current amplitude was 0.000.

What about the GIRK current amplitude (mGluR3-3xTM4 [3]; Glutamate 10 uM) of the same molecule?
Its GIRK current amplitude is 0.695 and 0.866.

And the GIRK current amplitude (mGluR3-3xTM4 [3]; Glutamate 100 uM)?
The GIRK current amplitude was 1.078 and 0.767 and 0.806.

What about the GIRK current amplitude (mGluR3-3xTM4 [3]; Glutamate 1mM) of the same molecule?
The GIRK current amplitude was 1.000.

And the EC50 (mGluR3-3xTM4 [3]; [8])?
The EC50 was 1.02 ± 0.17 µM.

What about the FRET response amplitude (mGluR3-I788A; Glutamate 10 nM) of the same molecule?
The FRET response amplitude was 0.00.

And the FRET response amplitude (mGluR3-I788A; Glutamate 1 uM)?
Its FRET response amplitude is 0.60 and 0.66 and 0.55.

What about the FRET response amplitude (mGluR3-I788A; Glutamate 10 uM) of the same molecule?
The FRET response amplitude was 0.97 and 1.00 and 0.86.

And the FRET response amplitude (mGluR3-I788A; Glutamate 100 uM)?
Its FRET response amplitude is 1.00.

And the FRET response amplitude (mGluR3-I788A; Glutamate 1 mM)?
The FRET response amplitude was 1.00.

And the EC50 (mGluR3-I788A; read-out: Glutamate EC50, inter-TMD FRET, normalized to saturating (1 mM) glutamate, unit inferred)?
The EC50 was 0.66 ± 0.05 µM.

And the Calcium response amplitude (mGluR2-3xTM4 [4]; Glutamate 1 nM)?
The Calcium response amplitude was 0.00.

What about the Calcium response amplitude (mGluR2-3xTM4 [4]; Glutamate 10 nM) of the same molecule?
Its Calcium response amplitude is 0.00.

What about the Calcium response amplitude (mGluR2-3xTM4 [4]; Glutamate 100 nM) of the same molecule?
The Calcium response amplitude was 0.26 and 0.30 and 0.14.

What about the Calcium response amplitude (mGluR2-3xTM4 [4]; Glutamate 300 nM) of the same molecule?
Its Calcium response amplitude is 0.49 and 0.41.

And the Calcium response amplitude (mGluR2-3xTM4 [4]; Glutamate 1 uM)?
The Calcium response amplitude was 0.54 and 0.70 and 0.62 and 0.63 and 0.75.

What about the Calcium response amplitude (mGluR2-3xTM4 [4]; Glutamate 3 uM) of the same molecule?
The Calcium response amplitude was 0.98 and 0.89 and 0.90 and 0.80 and 0.78 and 1.01.

And the Calcium response amplitude (mGluR2-3xTM4 [4]; Glutamate 10 uM)?
The Calcium response amplitude was 0.95 and 1.00 and 0.99.

What about the Calcium response amplitude (mGluR2-3xTM4 [4]; Glutamate 100 uM) of the same molecule?
Its Calcium response amplitude is 0.96 and 0.99 and 1.00 (2×).

And the Calcium response amplitude (mGluR2-3xTM4 [4]; Glutamate 1 mM)?
The Calcium response amplitude was 1.00.

What about the Calcium response amplitude (mGluR3-3xTM4 [5]; Glutamate 100 nM) of the same molecule?
The Calcium response amplitude was 0.028 and 0.00.

What about the Calcium response amplitude (mGluR3-3xTM4 [5]; Glutamate 300 nM) of the same molecule?
The Calcium response amplitude was 0.11 (2×) and 0.00 (2×).

What about the Calcium response amplitude (mGluR3-3xTM4 [5]; Glutamate 3 uM) of the same molecule?
Its Calcium response amplitude is 0.32 and 0.20 and 0.21 and 0.35.

What about the Calcium response amplitude (mGluR3-3xTM4 [5]; Glutamate 10 uM) of the same molecule?
The Calcium response amplitude was 0.27 and 0.56 and 0.69.

And the Calcium response amplitude (mGluR3-3xTM4 [5]; Glutamate 100 uM)?
Its Calcium response amplitude is 0.89 and 0.81.

And the EC50 (mGluR3-3xTM4 [5]; [6])?
The EC50 was 11 µM.

What about the EC50 (mGluR3-3xTM4 [5]; [7]) of the same molecule?
Its EC50 is 11 ± 0.1 µM.
